The structures appear in SMILES notation.

For the experiment, the system named is Plasmodium falciparum. The experiment is described as follows: GSK_TCMDC: Inhibition of Plasmodium falciparum 3D7 in whole erythrocytes, using parasite LDH activity as an index of growth. The conditions noted are these: Plasmodium falciparum, 3D7. Type of experiment: functional, organism-based.
`CCN(CC)CCN(Cc1ccc(-c2ccc(Cl)s2)cc1)C(=O)Cn1c(CCc2cccc(F)c2F)nc(=O)c2ccccc21` registered an XC50 of 1140 nM.
The value for `CCCCn1c(Sc2ccc(C#N)c([N+](=O)[O-])c2)nnc1-c1ccc(OC)cc1` was 1030 nM; that for `Cc1cc(C)nc(-n2[nH]c(C)c(Cc3ccc(C(C)(C)C)cc3)c2=O)n1` was 1010 nM.
The figure for `FC(F)(F)c1cc(Nc2ccc(Oc3ccccc3)cc2)c2cc(-c3ccncc3)ccc2n1` is 454 nM; for `Cc1ccc(C)c(Cn2ccc3nc(Cl)nc(Cl)c32)c1` it is 911 nM; for `COc1ccccc1CNc1ccnc(N2CC(Oc3ccc(F)cc3)C2)n1` it is 850 nM.
On to `Cc1ccc(NC(=O)c2ccc(CN3CCCN(Cc4cccc(C#N)c4)CC3)cc2)cc1F`, for which the XC50 was 592 nM.
The compound `Cc1ccc(NC(=O)c2ccc3ncccc3c2)cc1OC1CCN(Cc2ccc(F)cc2)CC1` yielded an XC50 of 944 nM.
Compound `Cn1c(=N)n(CC(=O)N2CCc3ccc(Cl)cc3C2Cc2ccc(Cl)c(Cl)c2)c2ccccc21` (stereo unspecified) came in with an XC50 of 869 nM.
On to `COc1ccc(N2CCN(CCCNC(=O)c3ccc(NC(=O)c4cc(Cl)cc(Cl)c4)cc3)CC2)c(OC)c1`, for which the XC50 is 269 nM.
For `CCc1nc2c(cnn2CC)c(NC2CCOCC2)c1CNC(=O)c1ccoc1C`, the XC50 was 886 nM.
The value for `CCNc1cc(C)nc(Nc2ccc(NC(=O)c3cccs3)cc2)n1` was 1020 nM; that for `COc1cccc(Nc2nc(C)cc(Nc3cccc(C#N)c3)n2)c1` was 1080 nM; that for `CN(Cc1ccc(NC(=O)NC2CCN(C(=O)/C=C/c3ccc(Cl)c(Cl)c3)CC2)cc1)C1CCOCC1` was 876 nM.
`c1ccc(-c2cc(NCCCCNc3cc(-c4ccccc4)nc4ccccc34)c3ccccc3n2)cc1`: the XC50 stood at 133 nM.
The compound `CCN1CCN(CCCNc2c3ccc(Cl)cc3nc3ccc(OC)cc23)CC1` registered an XC50 of 149 nM.
Consider `CCCCc1cc(=O)oc2cc(C)cc(OCc3ccccc3F)c12`, for which the XC50 was 1030 nM.
The value for `CCCc1cc(C(C)=O)ccc1OCCCON1C(=N)N=C(N)NC1(C)C` was 4.57 nM.
The value for `COc1ccc2nccc([C@@H](O)CN3CCC(NCc4ccc5c(c4)oc(=S)n5C)CC3)c2c1` was 187 nM; that for `CS(=O)(=O)Cc1ccc(Nc2nccc(N3CCCc4cc(NC(=O)Nc5cccc(C(F)(F)F)c5)ccc43)n2)cc1` was 148 nM; that for `Cc1nc(-c2ccc(-c3ccc(C(=O)Nc4ccc5c(c4)C4(CCNCC4)CO5)cc3)c(C)c2)no1` was 858 nM.
`COc1ccc2nccc(N(C)CC3(O)CCN(CCc4ccc5c(c4)OCCO5)CC3)c2n1` displayed an XC50 of 143 nM.
For `COc1ccc(C(=O)COc2cccc(/C=C/C(=O)O)c2)cc1OC`, the XC50 was 1320 nM.
For `CN(C)C1CCN(Cc2ccc(N3CCN(Cc4cccc5[nH]ccc45)CC3)nc2)CC1`, the XC50 stood at 1530 nM.
The figure for `COc1ccc2nccc([C@@H](O)CN3CCC(NCc4nc5ccc(F)cc5[nH]4)CC3)c2c1` is 732 nM; for `O=C(CCN(Cc1ccco1)c1nc(-c2ccc(F)cc2)nc2ccccc12)NC1CC1` it is 1580 nM; for `CCOc1cccc2nc(NCCCNCc3ccc(Cl)c(Cl)c3)cc(NCCCNCc3ccc(Cl)c(Cl)c3)c12` it is 574 nM.
The value for `Cn1c(=O)c2cc(C(=O)NCCCN3CCCCCC3)sc2c2ccccc21` was 689 nM.
Compound `N#Cc1ccc(N(CCOC(=O)c2ccccc2)Cc2ccccc2C(F)(F)F)cc1C(F)(F)F` displayed an XC50 of 921 nM.
In turn, `Clc1cccc(CNc2nc(NCCc3c[nH]cn3)nc(NC3CCCCC3)n2)c1` had an XC50 of 790 nM.
Compound `CCOC(=O)c1ccc(N2CCCCC2)c(NC(=O)C(Cl)(Cl)Cl)c1` displayed an XC50 of 849 nM.
`CC(Cc1ccc(OCCN2CCN(c3cccc(Cl)c3)CC2)cc1)NCC(O)c1cccc(C(F)(F)F)c1` (stereo unspecified) gave an XC50 of 602 nM.
`CCc1c[nH]c2c(N3CCCC3=O)cc(C(=O)N[C@@H](Cc3ccccc3)[C@H](O)CNC(C)(C)c3cccc(C(F)(F)F)c3)cc12` registered an XC50 of 115 nM.
For the compound `CN1CCC(NCc2ccc(-c3cccc(S(=O)(=O)NCc4ccccc4)c3)cc2)CC1`, the XC50 was found to be 324 nM.
The figure for `COc1cc(C)nc2ccc(NC(=O)Nc3ccccc3[N+](=O)[O-])cc12` is 837 nM; for `CCC(CC)n1c(COC)cc2c3c(N)nc(N)nc3ccc21` it is 5.57 nM.
`CCCc1cc(NC2CCN(C)CC2)nc(Nc2ccc(C)cc2)n1` had an XC50 of 898 nM.
As to `O=C(Nc1cccc(CN2CCN(Cc3cccc(O)c3)CC2)c1)c1cc2ccccc2s1`, the XC50 came out at 1120 nM.
Compound `Cc1noc(C)c1-c1ccc2c(Nc3ccccc3N3CCOCC3)c(C(=O)NCc3ccccc3)cnc2c1` displayed an XC50 of 1180 nM.
The figure for `O=C(N[C@H]1CCN(CCc2ccc(O[C@H]3CCNC3)cc2)C1)c1ccc(Cl)c(Cl)c1` is 828 nM; for `c1ccc(CSC2=NNC(c3ccccn3)S2)cc1` (stereo unspecified) it is 1480 nM; for `CCN(CC)CCNC(=O)/C(=C/C=C/c1cc2cc(Cl)c(Cl)cc2[nH]1)OC` it is 927 nM.
The value for `COc1cc(C=CC(=O)N2CCC3(CC2)CC(=O)c2ccccc2O3)cc(OC)c1OC` was 761 nM; that for `CN1CCN(C(C(=O)NCc2cc(Cl)cc(Cl)c2)c2ccc(NC(=O)Nc3ccccc3)cc2)CC1` (stereo unspecified) was 692 nM; that for `COc1cc(NC(=O)CCCCCCCN2CCN(C)CC2)c2ncccc2c1` was 611 nM.
The figure for `Nc1nccc2ccc(-c3cccc(O)c3)cc12` is 642 nM; for `Oc1ccc(CCNCCCCCCNCCc2ccc(-c3ccccc3)cc2)cc1O` it is 603 nM; for `CN(Cc1cccc(F)c1)C1CCN(c2cc(NC(=O)c3ccc(F)cc3)ccn2)CC1` it is 1160 nM.
With `CCn1c(-c2nonc2N)nc2cnc(Oc3cccc(NC(=O)c4ccc(OCCCN5CCCCC5)cc4)c3)cc21`, the XC50 turned out to be 925 nM.
Compound `CC(C)[C@H](NC(=O)c1ccc(O)c(-c2ccc(Cl)c(Cl)c2)c1)C(=O)NCCN1CCCC1` gave an XC50 of 929 nM.
The figure for `Cc1cc2nc(-c3ccc(C(=O)NC4CCN(Cc5ccccc5)CC4)s3)[nH]c2cc1C` is 771 nM; for `CCN(CCCN1CCCCC1)c1cc(C)nc(Nc2ccc(C)cc2Cl)n1` it is 339 nM; for `CCCCCc1cnc2nc(N)nc(N)c2c1C` it is 211 nM.
The figure for `NC(=S)Cc1ccc2c(c1)OCO2` is 284 nM; for `COc1ccc(Cn2c(Nc3cccc(C(F)(F)F)c3)nc3cc(C(=O)NC4CC4)cnc32)cc1Cl` it is 727 nM.
The value for `COc1cc(F)c2ncc(Cl)c(CCN3CCC(NCc4ccc5c(c4)OCCO5)CC3)c2c1` was 469 nM.
The compound `O=C(NC1CCCCN(Cc2ccccc2O)C1)c1cccc(Cl)c1` (stereo unspecified) came in with an XC50 of 1060 nM.
The figure for `COc1cccc2cc(C(=O)N[C@@H](CC(C)C)C(=O)N[C@H](/C=N/N3C(=O)CN(Cc4ccccc4)C3=O)CCc3ccccc3)oc12` is 618 nM; for `COc1cc(C=CC(=O)NC2CCC(CN3CCC(c4c[nH]c5ccccc45)CC3)CC2)cc(OC)c1` (stereo unspecified) it is 807 nM.
For the compound `CC(=O)Nc1sc(C)c(C)c1CN1CCc2ccccc2C1`, the XC50 was 616 nM.
The figure for `O=C(Nc1cccc(-c2nn3ccccc3c2-c2ccnc(Nc3cccc(N4CCCC4=O)c3)n2)c1)c1cc(F)ccc1F` is 212 nM; for `CCOC(=O)CN1Cc2cc(NCc3ccc4ccc5nc(C)[nH]c(=O)c5c4c3)ccc2C1=O` it is 700 nM; for `CC(C)CC(=O)N(Cc1ccc(-c2ccc(CNC3Cc4ccccc4C3)cc2)cc1)C1CCNCC1` it is 1170 nM.
`CCOC(=O)CCc1cc(F)c(F)c(OC[C@H](O)CNC(C)(C)C(O)c2ccc3ccccc3c2)c1` (stereo partly specified) had an XC50 of 859 nM.
The value for `O=C(NCCCN1CCN(c2cccc(Cl)c2)CC1)c1ccc(-c2nc3cc(Cl)c(Cl)cc3[nH]2)cc1` was 697 nM.
The figure for `O=C(Nc1ccc(OC2CCN(Cc3ccc(F)cc3)C2)c(Cl)c1)c1ccoc1` (stereo unspecified) is 938 nM; for `COc1cc(CC2c3cc(O)c(Cl)cc3CCN2C)c(OC)cc1C` (stereo unspecified) it is 713 nM; for `CCc1nc2nc(C)cc(Nc3cc(C)cc(C)c3)n2n1` it is 294 nM.
The value for `O=C(Nc1ccc2nc3n(c(=O)c2c1)CCCCC3)C(=O)N1CCN(c2ccc(F)cc2)CC1` was 636 nM; that for `N=C(N)NC(=O)Nc1cc(Cl)c(Br)c(Cl)c1` was 469 nM; that for `Cc1ccc(N2C(=O)C3C(C2=O)C2(c4ccccc4)C(=O)C3(c3ccccc3)C(c3ccccc3)=C2c2ccccc2)c(C)c1` (stereo unspecified) was 529 nM.
Regarding `CC(=O)N(Cc1ccc(CC(C)NCCc2cccc(Cl)c2)cc1)Cc1ccc(CC(C)NCCc2cccc(Cl)c2)cc1` (stereo unspecified), the XC50 stood at 783 nM.
The value for `CCCCn1c(N)c(N(Cc2ccco2)C(=O)C=Cc2cc(OC)c3c(c2)OCCO3)c(O)nc1=O` was 946 nM; that for `CN1CCCN(c2ccnc3cc4c(cc23)N(C(=O)c2ccc(Cl)cc2Cl)CC4)CC1` was 812 nM.
`Cc1cc(OCc2ccccc2)c(OCc2ccccc2)cc1C(O)CN(C)Cc1ccccc1` (stereo unspecified) had an XC50 of 809 nM.
The figure for `FC(F)(F)c1ccccc1OCc1cc(-c2ccncc2)c(COc2ccccc2C(F)(F)F)cc1C1=CCNCC1` is 890 nM; for `Cc1cccc2nc(-c3ccc(-c4ccc(CN5CCCCC5)cc4)s3)[nH]c12` it is 521 nM; for `COc1ccc(-c2cncc3ccc(C(=O)NCc4ccncc4)nc23)cc1` it is 736 nM.
The value for `COc1cc(CNc2ncc(-c3ccsc3)c(-c3nccs3)n2)cc(OC)c1` was 126 nM; that for `CC1=C(C(=O)OCCOCc2ccccc2)C(c2ccccc2C(F)(F)F)C(C(=O)OCCOCc2ccccc2)=C(C)N1` was 532 nM.
The value for `O=C(Cc1cccc(Cl)c1)N1CCc2cc3nccc(N4CCN5CCC[C@H]5C4)c3cc21` was 854 nM.
Consider `CC(C)(C)c1cc(C(=O)N2CCN(c3ncnc4ccsc34)CC2)n(Cc2ccccc2)n1`, for which the XC50 stood at 907 nM.
The figure for `COc1ccc(C2C(C(=O)OC3CCCCC3)=C(C)NC3=C2C(=O)CCC3)cc1Br` (stereo unspecified) is 579 nM; for `CCn1c(-c2nonc2N)nc2c(-c3cccc(NC(=O)Nc4ccccc4OC)c3)ncc(OCCCN)c21` it is 1000 nM.
The figure for `COc1cccc(CCc2nc3c(N4CCC(Cc5ccccc5)CC4)cccc3n2CC2CNCCO2)c1` (stereo unspecified) is 800 nM; for `Cn1c(NC(=O)CCCCCNC(=O)c2ccc(O)c(-c3ccc(Cl)c(Cl)c3)c2)nc2ccccc21` it is 726 nM.

(Values after ChEMBL document CHEMBL1157539, “Thousands of chemical starting points for antimalarial lead identification” (Nature, 2010).)
